# From US8716437B2 (priority 2007, dated 2014)
# What was measured:
# guinea pig ileum [1] = assay: Spontaneous motility (twitches) of guinea pig ileum strips; conditions: reference toxins 10 nM; mokatoxin-1 1-100 nM
# guinea pig ileum [2] = assay: Intraluminal pressure measurement of peristaltic activity of guinea pig ileum; conditions: MgTX 10 nM; mokatoxin-1 1-100 nM
# guinea pig ileum [3] = conditions: J Pharmacol Exp Ther. 1999; cited from earlier work
# vector transfected cells = assay: Phage panning on vector transfected cells (CONTROL); type: binding, human; conditions: one round of panning; calculated input 5:95%
# Experimental: Following incubation of the cells with the phages, cells were subjected to wash to remove the unbound/weakly bound phages. The remaining bound phages were eluted from the cells and transformed into XL1 E. coli, and plated onto LB plates with antibiotic selecting for the phagemids. The following day, 19-20 colonies of transformed XL1 were randomly selected and genotyped to establish the relative ratio (i.e., its departure from the calculated initial input of 5:95%) of the two different phage species, before and after the panning.
# Kv1.3 [4] = target: T1, Kv1.3 (Homo sapiens, UniProt P22001); assay: Phage panning on live cells (HEK, COS) expressing Kv1.3 channels; type: binding; set-up: expressed in transfected cells; host or cells: HEK (HEK293) and COS cells
# Text: In another example, receptors may be expressed in cells. For example, cells may be stably or transiently transfected with one or more receptors can be utilized as expressed in native tissues (Clackson and Lowman, Phage display. Oxford University Press, 2004; Barbas et al., Phage display. A laboratory manual. Cold Spring Harbor Laboratory Press, 2001; Sambrook et al., Molecular Cloning: A Laboratory Manual. Vols 1-3. Cold Spring Harbor Laboratory Press, 1989). In one example, HEK (mammalian human embryonic kidney) and COS cells expressing wild-type Kv1.3 or Kv1.3-PDZ domain chimera were employed, the latter target allowing a “double” panning (e.g., as a control or to enhance binding affinity) using phages expressing kaliotoxin-1 and/or PDZ-binder domain.
# Panning may be performed by the binding of ligands to the receptors, followed by washes and ligand recovery. In one example, panning is performed according to standard methods of phage display (Clackson and Lowman, Phage display. Oxford University Press, 2004; Barbas et al., Phage display. A laboratory manual. Cold Spring Harbor Laboratory Press, 2001). Panning may be repeated until the desired enrichment is achieved. In addition, libraries can be pre-depleted on surfaces or cells that contain no receptors or on a receptor where the putative ligand receptor domain may be directly or indirectly altered. Additionally, any and all conditions of panning may be varied, altered or changed to achieve optimal results, such as the isolation of a specific ligand. Panning variations include, but are not limited to, the presence of competing ligand(s), presence of excess target(s), length and temperature of binding, pre-absorption of the ligand library on one or more different receptor(s) or cells or surfaces, composition of binding solution (e.g., ionic strength), stringency of washing, and recovery procedures. Phages recovered from panning may be processed for further rounds of panning, functional analysis, and/or sequencing/genotyping to deduce the resulting ligands' amino acid sequence or biological properties (Clackson and Lowman, Phage display. Oxford University Press, 2004; Barbas et al., Phage display. A laboratory manual. Cold Spring Harbor Laboratory Press, 2001).
# 5×10^11 phagemids were added to the cell cultures in “B.”
# A library of KTX-like ligands, with a calculated diversity of greater than 11,000, was created de novo. The library comprised approximately 8% KTX-like ligands and 92% non-KTX-like ligands. The library of ligands was screened on Kv1.3 receptors expressed in HEK and COS cells.
# Transfection efficiency was monitored with cotransfection of gene encoding for the green fluorescence protein (GFP) and observing the fluorescence after 1-2 days following transfection.
# KTX and mokatoxin-1 are Kv1.3 specific scorpion toxins. […] Following incubation of the cells with the phages, cells were subjected to wash to remove the unbound/weakly bound phages. The remaining bound phages were eluted from the cells and transformed into XL1 E. coli, and plated onto LB plates with antibiotic selecting for the phagemids.
# Kv1.3 [5] = target: T1, Kv1.3; assay: Whole-cell patch-clamp of Kv1.3 currents in HEK293 cells, toxin-phage applied; type: cell-based; set-up: expressed in transfected cells; host or cells: HEK (HEK293) and COS cells; conditions: 0.1 nM toxin-displaying phage
# Experimental: […] […] Plasmids were transfected into cells with Lipofectamine 2000 (Invitrogen) according to the manufacturer's instructions. Experiments were performed at 24 hr. Whole-cell patch-clamp was performed using an Axopatch 200B amplifier and pCLAMP software (Molecular Devices, Union City, Calif.) at filter and sampling frequencies of 5 and 25 kHz respectively. Kv1.3 currents were evoked by 250 ms test pulses to 50 mV from −80 mV with a 5 second interpulse interval and studied in a bath solution comprising in mM: 1.3 CaCl2, 0.5 MgCl2, 0.4 MgSO4, 3.56 KCl, 0.44 KH2PO4, 139.7 NaCl, 0.34 Na2HPO4, 5.5 glucose, 10 HEPES adjusted to pH 7.4 with NaOH. […] Electrodes were coated with Sigmacote (Sigma) prior to use.
# Electrophysiological recordings were performed with mokatoxin—0422 to confirm blocking of Kv1.3 channels. […] Plasmids were transfected into cells with Lipofectamine 2000 (Invitrogen) according to the manufacturer's instructions. Experiments were performed at 24 hrs. Whole-cell patch-clamp was performed using an Axopatch 200B amplifier and pCLAMP software (Molecular Devices, Union City, Calif.) at filter and sampling frequencies of 5 and 25 kHz respectively. […]
# [6] = one round of panning, calculated input 5:95%
# Experimental for Human CD3+ T cells: 10^5 freshly isolated CD3′ T cells were activated using CD3/CD28 dynabeads (Dynal, USA) at a T cell:bead ratio of 1:1 in 200 ul of medium in 96 wells plate. Channel blockers diluted at different concentrations in PBS were added to the cells 1 h prior to stimulation (done in triplicate).
# Human CD3′ T cells were stimulated with CD3/CD28 beads following incubation with different concentrations (from 0.1 to 100 nM) of MK and KTX. The activity of MK was compared to the activity of KTX that was previously described to block the channels (Beeton et al, JI 2001).
# T1 sequence (P22001 whole entry, the tested form may be a part): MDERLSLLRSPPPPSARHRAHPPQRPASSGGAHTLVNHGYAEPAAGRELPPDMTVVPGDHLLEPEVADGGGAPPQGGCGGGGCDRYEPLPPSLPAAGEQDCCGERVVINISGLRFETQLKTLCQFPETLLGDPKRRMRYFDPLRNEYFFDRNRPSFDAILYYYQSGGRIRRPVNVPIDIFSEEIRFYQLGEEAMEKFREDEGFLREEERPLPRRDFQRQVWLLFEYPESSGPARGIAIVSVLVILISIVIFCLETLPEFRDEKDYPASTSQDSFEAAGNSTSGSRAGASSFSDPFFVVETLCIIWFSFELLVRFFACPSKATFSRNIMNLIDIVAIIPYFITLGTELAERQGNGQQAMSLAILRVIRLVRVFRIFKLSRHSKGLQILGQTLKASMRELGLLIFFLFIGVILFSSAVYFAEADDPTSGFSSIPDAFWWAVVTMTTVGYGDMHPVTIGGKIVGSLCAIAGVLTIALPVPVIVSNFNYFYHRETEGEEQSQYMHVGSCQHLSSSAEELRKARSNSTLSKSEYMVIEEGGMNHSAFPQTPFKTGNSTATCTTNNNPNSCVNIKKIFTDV
compound,measurement,setting,value
"CC[C@H](C)[C@H](N)C(=O)N[C@@H](CC(N)=O)C(=O)N[C@H](C(=O)N[C@@H](CCCCN)C(=O)N[C@H]1CSSC[C@@H]2NC(=O)[C@H](CCCCN)NC(=O)CNC(=O)[C@H](Cc3ccccc3)NC(=O)[C@H](CCCNC(=N)N)NC(=O)[C@H](CCSC)NC(=O)CNC(=O)[C@H](C)NC(=O)[C@H](CC(=O)O)NC(=O)[C@H](CCCCN)NC(=O)[C@@H]3CSSC[C@@H](C(=O)N[C@@H](Cc4ccc(O)cc4)C(=O)N[C@@H](CO)C(=O)O)NC(=O)[C@H](CCCNC(=N)N)NC(=O)[C@H](CSSC[C@H](NC(=O)[C@H](CCC(N)=O)NC(=O)[C@H](CCC(N)=O)NC(=O)[C@@H]4CCCN4C(=O)[C@H](CC(C)C)NC(=O)[C@H](CO)NC1=O)C(=O)N[C@@H]([C@@H](C)CC)C(=O)N[C@@H](CCCCN)C(=O)N1CCC[C@H]1C(=O)N3)NC(=O)[C@H](CCCCN)NC(=O)[C@H](CCCCN)NC(=O)[C@H](CC(N)=O)NC(=O)[C@H](CCSC)NC2=O)C(C)C [MK-1, mokatoxin-1]",cell viability,Human CD3+ T cells,no reduction of cell viability
Margatoxin,induction of twitches in ileum strips,guinea pig ileum [1],induced twitches
same,pressure threshold for initiation and frequency of peristaltic waves,guinea pig ileum [2],induced a lowering of the pressure threshold
same,ileum contractions,guinea pig ileum [3],contractions
mokatoxin-2,"# of genotype (%), Control",vector transfected cells,5%
same,"# of genotype, Control",vector transfected cells,1
same,share after the 2nd round of panning of the library on Kv1.3 cells,"Kv1.3 [4]; HEK, KTX scaffold combinatorial library, n=18",11%
same,"# of genotype (%), Test",Kv1.3 [4]; [6],90%
same,"# of genotype, Test",Kv1.3 [4]; [6],18
same,block of Kv1.3 channels expressed in mammalian cells,Kv1.3 [5],blocks Kv1.3 channels
